# Experimental data from patent publication US11026423B2, “Herbicidal compositions and methods” (SePRO Corporation, priority 2013, dated 2021).
# Columns and labels:
# yellow nutsedge = assay: Example 6 Shafter almond orchard: yellow nutsedge control; format: in vivo, Cyperus esculentus L.
# Procedure: (§1) Field trials were conducted in California to determine sweet almond (Prunus dulcis) tolerance to fluridone and efficacy of fluridone in an irrigated orchard environment. Trial locations included a two-year old almond stand in Kerman, Calif. and a six-year old stand in Shafter, Calif. The soil in both locations is classified as a sandy loam. Applications prior to emergence of weeds (PRE) of herbicides were made in the month of January in Kerman and in the month of January in Shafter. […] Rainfall (0.32 in (about 0.813 cm)) and irrigation (1.5 in (about 3.81 cm)) one day after PRE applications were used to incorporate herbicides into the soil at the Kerman and Shafter locations, respectively. Both sites were irrigated as needed during the growing season to avoid drought conditions. Visual evaluations of crop injury and weed control were made monthly on a 0 to 100% scale. Postemergent (POST) broadcast applications of a non-selective, contact herbicide was broadcast across all treatments in Kerman prior to the 90 days after treatment and 119 days after treatment (DAT) ratings. Thus, data from those ratings dates was not evaluated. No POST applications were made in Shafter.
# hairy fleabane [1] = assay: Example 8 Elderwood orange orchard: hairy fleabane control; format: in vivo
# Procedure: (§2) A field trial was conducted in California to evaluate tolerance of non-bearing “Cara Cara” orange (Citrus sinensis) to fluridone and the efficacy of fluridone in an irrigated orchard environment. The trial was initiated in the month of January in Elderwood, Calif. The soil on the trial site was classified as a clay. […] Rainfall (0.44 in. (about 1.12 cm)) that occurred in the first week following PRE application incorporated the herbicides into the soil. The site was irrigated as needed during the growing season to avoid drought conditions. Visual evaluations of crop injury and weed density were made on a 0 to 100% scale. Additionally, plant counts per plot of weed species present were conducted for each evaluation period.
# Palmer amaranth = assay: Example 10 dryland cotton field, Jackson, Tenn.: Palmer amaranth control; format: in vivo, Amaranthus palmeri; conditions: fluridone 0.1 to 0.5 lb/ac
# Procedure: An experiment with cotton was conducted during the months of April to the month of June in Jackson, Tenn. Plots were arranged as a randomized complete block with four replicates. Plots were 6.3 ft by 30 ft (about 1.92 meteres by about 9.114 meters). The soil on the site was classified as a silt loam soil. […] The site received approximately four inches (about 10.16 cm) of rainfall in the first 35 days after treatment (DAT). Visually evaluations of Palmer amaranth control were made twice a month on a 0 to 100% scale.
# [2] = test system: witchgrass (Panicum capillare L.); assay: Example 8 Elderwood orange orchard: witchgrass control; format: in vivo; conditions: 168 DAT, three highest fluridone rates; indaziflam
# Procedure: as §2
# [3] = test system: redmaids (Calandrinia sp.); assay: Example 7 Kerman vineyard: redmaids control; format: in vivo; conditions: 58 DAT, fluridone 0.2, 0.4 and 0.8 lb/ac
# Description: (§3) Trials were placed in grape vineyards located in Kerman and Kingsburg, Calif. The soil in both locations is classified as a sandy loam. Preemergent herbicide applications were made in the month of January in Kerman and in the month of March in Kingsburg. […] Additionally, indaziflam applied at 0.065 lb/ac was included at the Kingsburg site. […] Both sites were irrigated as needed during the growing season to avoid drought conditions. Visual evaluations of crop injury and weed control were made monthly on a 0 to 100% scale. Cultivation occurred in the row centers at the Kerman location following the 58 DAT evaluations, and therefore, the Kerman results following 58 DAT were not evaluated. No cultivation occurred in Kingsburg during the trial period.
# [4] = test system: weeds (total weed control); assay: Example 10 irrigated walnut, Stockton, Calif.: total weed control; format: in vivo; conditions: fluridone 0.2 to 0.4 lb/ac
# Procedure: An experiment with walnut was conducted during the months of December to the month of June the following year in Stockton, Calif. Plots were arranged as a randomized complete block with three replicates. Plots were 8 ft×8 ft (about 2.43 meters by meters)(1 tree/plot). The soil on the site is classified as a clay loam. […] The site received approximately four inches (about 10.16 cm) of rainfall in the first 35 DAT, and an additional 2.9 inches (about 7.366 cm) rainfall and 6.5 inches (about 16.51 cm) irrigation the next 124 days thereafter. Visually evaluations of weed control were made monthly on a 0 to 100% scale.
# [5] = test system: spotted spurge (Euphorbia maculate); assay: Example 6 Shafter almond orchard: spotted spurge control; format: in vivo; conditions: 211 DAT, fluridone 0.4 and 0.8 lb/ac
# Procedure: as §1
# [6] = test system: yellow nutsedge (Cyperus esculentus L.); assay: Example 6 Kerman almond orchard: yellow nutsedge control; format: in vivo; conditions: 184 DAT, 0.4 and 0.8 lb fluridone/ac
# Procedure: as §1
# [7] = test system: crabgrass (Digitaria spp.); assay: Example 6 Kerman almond orchard: crabgrass control; format: in vivo; conditions: 184 DAT, 0.4 and 0.8 lb fluridone/ac
# Procedure: as §1
# [8] = test system: Palmer amaranth (Amaranthus palmeri); assay: Example 9 greenhouse: preemergence Palmer amaranth control under varying irrigation; format: in vivo; conditions: fluridone 0.2 lb/ac, coarse sand soil, irrigation 0 to 1.0 inch
# Procedure: An experiment was conducted beginning in the month of August in a greenhouse. The greenhouse was arranged as a randomized complete block with four replicates. A coarse sand soil was used to fill four inch diameter pots. […] Overhead irrigation occurred eight and 10 days after treatment, applying an additional 0.25 inch (abou 0.635 cm) of water to each pot. Palmer amaranth control was determined by counting seedlings in each pot weekly.
# [9] = test system: sprangletop (Leptochloa sp.); assay: Example 6 Shafter almond orchard: sprangletop control; format: in vivo; conditions: 211 DAT, three highest rates of fluridone
# Procedure: as §1
# [10] = test system: hare barley, annual sowthistle, black medic, chickweed, and redstem filaree; assay: Example 12 Arbuckle almond orchard: weed control; format: in vivo; conditions: approximately 1, 2 and 3 months after treatment
# Procedure: (§4) A field trial was conducted in northern California for weed control and safety in one peach orchand and two almond orchards. The herbicide applications were made between January and February when the tree crops were dormant.
# Weed control and crop safety were evaluated at approximately 1, 2, and 3 months after treatment. Weed pressure was fairly heavy, and uniform over the trial site. Populations of hare barley, annual sowthistle, black medic, chickweed, and redstem filaree were recorded.
# weeds in walnut orchard = assay: Example 11 walnut orchard field trial: weed efficacy; format: in vivo
# Procedure: A field trial was performed in a dormant 4th year walnut orchard (Chandler variety) located near Stockton, Calif. The trial was initiated in December for weed efficacy studies and crop tolerance studies. Plots were about 8 feet by about 18 feet (about 2.43 meters by about 5.49 meters) with one tree per plot arranged in a randomized complete block design with three replications. Fluridone, flumioxazin, Roundup, and glufosinate ammonium were tested.
# weeds = assay: Example 12 UC Davis almond orchard: weed control; format: in vivo; conditions: 1 to 5 months after treatment, all treatment rates
# Procedure: as §4
# hairy fleabane [11] = assay: Example 6 Shafter almond orchard: hairy fleabane control; format: in vivo, Conyza bonariensis; conditions: 211 DAT, fluridone 0.4 and 0.8 lb/ac
# Procedure: as §1
# [12] = test system: 'Thompson' grape (Vitis vinifera); assay: Example 7 field trials: grape tolerance; format: in vivo; conditions: PRE application, Kerman and Kingsburg
# Description: as §3
# [13] = test system: prostrate spurge (Euphorbia supine Raf.); assay: Example 8 Elderwood orange orchard: prostrate spurge control; format: in vivo; conditions: 168 DAT, PRE
# Procedure: as §2
# [14] = test system: "Cara Cara" orange (Citrus sinensis); assay: Example 8 field trial: orange tolerance; format: in vivo; conditions: Elderwood, PRE application, trial period
# cotton plants [15] = assay: Pot demonstration of safening in cotton (FIG. 4); format: in vivo; conditions: three cotton plants planted, flumioxazin only (FIG. 4)
# Description: Flumioxazin is another herbicide member of the PPO-inhibitor class that is commonly applied pre-emergent to control weeds, and has the chemical name 2-[7-fluoro-3,4-dihydro-3-oxo-4-(2-propynyl)-2H-1,4-benzoxazin-6-yl]-4,5,6,7-tetrahydro-1H-isoindole-1,3(2H)-dione. In certain embodiments of the present invention, flumioxazin can be applied to soil at a rate of about 0.015 pounds per acre to about 0.25 pounds per acre. In other embodiments, flumioxazin can be applied to soil at a rate of about 0.03 pounds per acre to about 0.25 pounds per acre. In another embodiment, flumioxazin can be applied to soil at a rate of about […] to about 0.2 pounds per acre.
# [16] = test system: sweet almond (Prunus dulcis); assay: Example 6 field trials: almond tolerance; format: in vivo; conditions: Kerman, any PRE herbicide application
# Procedure: as §1
# cotton plants [17] = assay: Example 3 growth chamber trial, pre-emergent application on cotton; format: in vivo
# Procedure: 0.1 L conical assay tubes were planted with a cotton or soybean seed in a sample of sandy loam soil. Seven tubes were prepared for each herbicide application rate. Application of a herbicide composition was performed after planting the seed and prior to the plant's emergence from the soil (i.e., pre-emergent or PRE). Approximately 0.15 inches of water was applied to each pot four hours after application. […] The greenhouse was maintained at 26±5° C. during the day and 11±1° C. during the night.
# cotton [18] = assay: May field trial: phytotoxicity to cotton; conditions: May planting field trial, pre-emergent, 1 and 9 weeks post treatment
# Procedure: (§5) Cotton was planted in fields in May. The field was then over seeded with P. amaranth. […] Within 24 hours of application of the herbicide, 0.25 inches of rain was recorded. An additional planting of cotton, by hand, was conducted in August with multiple rates.
# P. amaranth [19] = assay: Greenhouse trial: P. amaranth control across soil types and moisture conditions; format: in vivo, Amaranthus palmeri; conditions: low moisture conditions across some soil types
# Description: In addition to these field trials, greenhouse studies were also undertaken. The greenhouse studies evaluated the use of fluridone, fomesafen, and the combination of fluridone and fomesafen as well as the affect of soil types, and moisture conditions. Four soil types were examined: a predominantly clay soil, a sandy loam soil, a loamy peat soil, and a sandy soil. The moisture conditions evaluated were at 0.2 inches of water, and 1.5 inches of water.
# cotton [20] = assay: Greenhouse trial: cotton response across soil types and moisture conditions; format: in vivo
# Description: In addition to these field trials, greenhouse studies were also undertaken. […] Four soil types were examined: a predominantly clay soil, a sandy loam soil, a loamy peat soil, and a sandy soil.
# P. amaranth [21] = assay: May field trial: weed control in cotton field; format: in vivo, Amaranthus palmeri; conditions: May planting field trial, pre-emergent, 1 and 9 weeks post treatment
# Procedure: as §5
molecule,measurement,setting,value
1-methyl-3-phenyl-5-[3-(trifluromethyl)phenyl]-4(1H)-pyridone [fluridone],yellow nutsedge control compared to 0.1 and 0.2 lb fluridone/ac,"yellow nutsedge; 211 DAT, fluridone 0.4 and 0.8 lb/ac",significantly greater control
same,yellow nutsedge control compared to flumioxazin,yellow nutsedge; fluridone applied at every rate,significantly greater than flumioxazin
same,hairy fleabane control,hairy fleabane [1],Neither fluridone nor indaziflam effectively controlled
same,Palmer amaranth control,Palmer amaranth,good control of Palmer amaranth
same,control of witchgrass,[2],100%
same,redmaids control greater than flumioxazin,[3],13.5%
same,total weed control,[4],good total weed control
same,spotted spurge control compared to 0.1 and 0.2 lb fluridone/ac,[5],significantly greater control
same,yellow nutsedge control compared to flumioxazin,[6],similar
same,crabgrass control greater than flumioxazin,[7],10%
same,preemergent Palmer amaranth control vs amount of irrigation,[8],increasing the amount of irrigation increases preemergent control
same,sprangletop control compared to flumioxazin,[9],significantly greater control than flumioxazin
same,control of all weeds present,[10],~100%
same,weeds observed in plots,"weeds in walnut orchard; 129 DAT, lower rates",Some weeds were observed
same,weeds observed in plots,"weeds in walnut orchard; 159 DAT, fluridone applied at lower rates","lambsquarter, bindweed, spurge and knotweed were observed"
same,weed control,weeds,good weed control
same,hairy fleabane control compared to 0.1 and 0.2 lb fluridone/ac,hairy fleabane [11],significantly greater control
"Cc1ccc2c(c1)[C@H](Nc1nc(N)nc(C(C)F)n1)[C@@H](C)C2 (mixture of isomers) [indaziflam, N-[(1R,2S)-2,3-dihydro-2,6-dimethyl-1H-inden-1-yl]-6-[(1RS)-1-fluoroethyl]-1,3,5-triazine-2,4-diamine]",phytotoxicity,[12],Phytotoxicity was not observed
same,hairy fleabane control,hairy fleabane [1],Neither fluridone nor indaziflam effectively controlled
same,control of witchgrass,[2],100%
same,prostrate spurge control,[13],95%
same,phytotoxicity,[14],did not contribute to phytotoxicity
"C#CCN1C(=O)COc2cc(F)c(N3C(=O)C4=C(CCCC4)C3=O)cc21 [flumioxazin, 2-[7-fluoro-3,4-dihydro-3-oxo-4-(2-propynyl)-2H-1,4-benzoxazin-6-yl]-4,5,6,7-tetrahydro-1H-isoindole-1,3(2H)-dione]",phytotoxicity,[12],Phytotoxicity was not observed
same,emergence of cotton plants from the soil,cotton plants [15],only one emerged from the soil
same,phytotoxicity,[16],Phytotoxicity was not observed
same,crop stand (number of viable plants),"cotton plants [17]; 0.05 lb/A flumioxazin, seven tubes",one surviving plants out of seven
same,growth stage / growth stunting,"cotton plants [17]; 26 days after treatment, flumioxazin 0.05 lb/A, scale 0-3",the most growth stunting
same,injury to cotton plants,cotton plants [17]; application rates greater than 0.025 lb/A flumioxazin,significantly injured
same,cotyledons with excessive wrinkling and brown spotting due to herbicide injury,"cotton plants [17]; flumioxazin alone 0.05 lb/A, 26 days after treatment",all of the cotyledons show brown spotting
same,lethality to cotton plants,cotton plants [17]; flumioxazin at the highest rates (FIG. 15),fatal to cotton plants
same,weeds observed in plots,"weeds in walnut orchard; 129 DAT, lower rates",Some weeds were observed
"CS(=O)(=O)NC(=O)c1cc(Oc2ccc(C(F)(F)F)cc2Cl)ccc1[N+](=O)[O-] [fomesafen, 5-[2-chloro-4-(trifluoromethyl)phenoxy]-N-(methylsulfonyl)-2-nitrobenzamide]",phytotoxicity,cotton [18],no phytotoxicity was observed
same,P. amaranth control,P. amaranth [19],not able to provide complete P. amaranth control
same,growth of treated cotton plants,"cotton [20]; 4 weeks after planting (FIG. 3A, 3B)",stunting effect on cotton
same,stunting,"cotton [20]; less than ideal growing conditions, compared to fluridone and fluridone/fomesafen treatments",some stunting was observed
same,control of P. amaranth,P. amaranth [21],showed control of P. amaranth
